Laboratory results published in publication PMC9747611 (Hypertension Research, 2022).
Entries after “also recorded” stand apart in the source; their conditions may differ.

What was measured:
Assay type in all cases: in vivo, human
plasma cortisol = assay: Plasma and urine cortisol and 11-deoxycortisol (pharmacodynamics, with ACTH challenge in low-salt cohorts)
Method: Cohorts 1 and 2 also underwent an ACTH (Cortrosyn^TM) challenge at baseline (day −1), 1 h after the first dose of study drug on day 1, and 1 h after the final dose of study drug on day 10. This was done to increase aldosterone and cortisol levels to more thoroughly evaluate the specificity of baxdrostat for targeting aldosterone synthase. The ACTH challenge consisted of an intravenous injection of 0.25 mg Cortrosyn^TM administered over 2 min after an overnight fast.
Plasma and urine samples were analyzed to measure concentrations of baxdrostat and its primary metabolite (CIN-107-M), aldosterone and its precursors, cortisol and its precursor, and ACTH using a validated liquid chromatography tandem mass spectrometry method (LC-MS/MS). The quantifiable ranges for both baxdrostat and its metabolite CIN-107-M in plasma and urine were 0.05 to 50 ng/mL (low range) and 5 to 2500 ng/mL (high range), using baxdrostat-d5 and CIN-107-M-d3, respectively, as the internal standards. Plasma samples were extracted by protein precipitation with methanol, followed by analysis by LC-MS/MS with electrospray ionization in positive mode and multiple reaction monitoring. […]
Plasma PD measures included concentrations of aldosterone, 18-hydroxycorticosterone, corticosterone, 11-deoxycorticosterone, cortisol (free and total), 11-deoxycortisol, ACTH, sodium, chloride, and potassium. AUCs were calculated using a noncompartmental analysis and the linear trapezoidal/linear interpolation method. […]
Subjects who received placebo were pooled into 2 treatment groups: placebo with low-salt diet and placebo with normal-salt diet. Descriptive statistics were calculated for PK, PD, and safety measures. […] The results of the exploratory dose proportionality power model were assessed using the Smith criteria (0.9031, 1.0969) and the less stringent Hummel criteria (0.6990, 1.3010).

[1] = Safety: adverse events, ECG, vital signs
Method: (§1) Plasma PD measures included concentrations of aldosterone, 18-hydroxycorticosterone, corticosterone, 11-deoxycorticosterone, cortisol (free and total), 11-deoxycortisol, ACTH, sodium, chloride, and potassium. AUCs were calculated using a noncompartmental analysis and the linear trapezoidal/linear interpolation method. Urine PD measures included concentrations of aldosterone, cortisol (free and total), tetrahydroaldosterone, sodium, chloride, potassium, creatinine, and phosphorus. Other PD measures were seated, orthostatic, and positional changes in vital signs, as well as changes in body weight and BMI. Safety assessments involved adverse events, physical examinations, ECGs, orthostatic vital signs, and clinical laboratory evaluations.
Subjects who received placebo were pooled into 2 treatment groups: placebo with low-salt diet and placebo with normal-salt diet. Descriptive statistics were calculated for PK, PD, and safety measures. […] Data are presented as change from baseline in least squares mean (90% CI) AUC0-12h of plasma aldosterone on days 1 and 10. The results of the exploratory dose proportionality power model were assessed using the Smith criteria (0.9031, 1.0969) and the less stringent Hummel criteria (0.6990, 1.3010).

[2] = Plasma electrolytes and renal function (pharmacodynamics)
Method: as §1

[3] = also with ACTH challenge in low-salt diet groups
[4] = 0.5 mg once daily 10 days, normal-salt diet, n = 9
[5] = 1.5 mg once daily 10 days, normal-salt diet, n = 9
[6] = 2.5 mg once daily 10 days, low-salt diet, n = 9
[7] = 2.5 mg once daily 10 days, normal-salt diet, n = 6
[8] = 5.0 mg once daily 10 days, low-salt diet, n = 9
[9] = 0.5-5.0 mg once daily for 10 days

CCC(=O)N[C@@H]1CCCc2c(-c3ccc4c(c3)CCC(=O)N4C)cncc21 [baxdrostat]
effect on urine free cortisol (plasma cortisol; 24 h urine collections): no meaningful effect
effect on plasma 11-deoxycortisol (plasma cortisol; [3]): no meaningful effect
effect on plasma cortisol (total or free) (plasma cortisol; [3]): no meaningful impact; also recorded: no meaningful effect
Abdominal pain [1, 4]: 0 (0.0) n (%)
Anxiety [1, 4]: 0 (0.0) n (%)
Any AE [1, 4]: 1 (11.1) n (%)
Any TEAE [1, 4]: 1 (11.1) n (%)
Any TEAE leading to death [1, 4]: 0 (0.0) n (%)
Any TEAE leading to discontinuation [1, 4]: 0 (0.0) n (%)
Any drug-related treatment-emergent SAE [1, 4]: 0 (0.0) n (%)
Any treatment-emergent SAE [1, 4]: 0 (0.0) n (%)
Back pain [1, 4]: 0 (0.0) n (%)
Constipation [1, 4]: 0 (0.0) n (%)
Dizziness [1, 4]: 0 (0.0) n (%)
Dizziness postural [1, 4]: 0 (0.0) n (%)
Dry throat [1, 4]: 0 (0.0) n (%)
Dysphonia [1, 4]: 0 (0.0) n (%)
Eye irritation [1, 4]: 0 (0.0) n (%)
Headache [1, 4]: 1 (11.1) n (%)
Nausea [1, 4]: 0 (0.0) n (%)
Palpitations [1, 4]: 0 (0.0) n (%)
Presyncope [1, 4]: 0 (0.0) n (%)
Rhinitis [1, 4]: 0 (0.0) n (%)
Ventricular tachycardia [1, 4]: 0 (0.0) n (%)
Viral infection [1, 4]: 0 (0.0) n (%)
Abdominal pain [1, 5]: 0 (0.0) n (%)
Anxiety [1, 5]: 0 (0.0) n (%)
Any AE [1, 5]: 1 (11.1) n (%)
Any TEAE [1, 5]: 1 (11.1) n (%)
Any TEAE leading to death [1, 5]: 0 (0.0) n (%)
Any TEAE leading to discontinuation [1, 5]: 0 (0.0) n (%)
Any drug-related treatment-emergent SAE [1, 5]: 0 (0.0) n (%)
Any treatment-emergent SAE [1, 5]: 0 (0.0) n (%)
Back pain [1, 5]: 0 (0.0) n (%)
Constipation [1, 5]: 1 (11.1) n (%)
Dizziness [1, 5]: 0 (0.0) n (%)
Dizziness postural [1, 5]: 0 (0.0) n (%)
Dry throat [1, 5]: 0 (0.0) n (%)
Dysphonia [1, 5]: 0 (0.0) n (%)
Eye irritation [1, 5]: 0 (0.0) n (%)
Headache [1, 5]: 0 (0.0) n (%)
Nausea [1, 5]: 0 (0.0) n (%)
Palpitations [1, 5]: 0 (0.0) n (%)
Presyncope [1, 5]: 0 (0.0) n (%)
Rhinitis [1, 5]: 0 (0.0) n (%)
Ventricular tachycardia [1, 5]: 0 (0.0) n (%)
Viral infection [1, 5]: 0 (0.0) n (%)
Abdominal pain [1, 6]: 0 (0.0) n (%)
Anxiety [1, 6]: 0 (0.0) n (%)
Any AE [1, 6]: 3 (33.3) n (%)
Any TEAE [1, 6]: 3 (33.3) n (%)
Any TEAE leading to death [1, 6]: 0 (0.0) n (%)
Any TEAE leading to discontinuation [1, 6]: 0 (0.0) n (%)
Any drug-related treatment-emergent SAE [1, 6]: 0 (0.0) n (%)
Any treatment-emergent SAE [1, 6]: 0 (0.0) n (%)
Back pain [1, 6]: 0 (0.0) n (%)
Constipation [1, 6]: 0 (0.0) n (%)
Dizziness [1, 6]: 0 (0.0) n (%)
Dizziness postural [1, 6]: 1 (11.1) n (%)
Dry throat [1, 6]: 0 (0.0) n (%)
Dysphonia [1, 6]: 0 (0.0) n (%)
Eye irritation [1, 6]: 0 (0.0) n (%)
Headache [1, 6]: 1 (11.1) n (%)
Nausea [1, 6]: 0 (0.0) n (%)
Palpitations [1, 6]: 0 (0.0) n (%)
Presyncope [1, 6]: 1 (11.1) n (%)
Rhinitis [1, 6]: 0 (0.0) n (%)
Ventricular tachycardia [1, 6]: 0 (0.0) n (%)
Viral infection [1, 6]: 1 (11.1) n (%)
Abdominal pain [1, 7]: 0 (0.0) n (%)
Anxiety [1, 7]: 1 (16.7) n (%)
Any AE [1, 7]: 3 (50.0) n (%)
Any TEAE [1, 7]: 3 (50.0) n (%)
Any TEAE leading to death [1, 7]: 0 (0.0) n (%)
Any TEAE leading to discontinuation [1, 7]: 0 (0.0) n (%)
Any drug-related treatment-emergent SAE [1, 7]: 0 (0.0) n (%)
Any treatment-emergent SAE [1, 7]: 0 (0.0) n (%)
Back pain [1, 7]: 0 (0.0) n (%)
Constipation [1, 7]: 0 (0.0) n (%)
Dizziness [1, 7]: 1 (16.7) n (%)
Dizziness postural [1, 7]: 2 (33.3) n (%)
Dry throat [1, 7]: 1 (16.7) n (%)
Dysphonia [1, 7]: 0 (0.0) n (%)
Eye irritation [1, 7]: 1 (16.7) n (%)
Headache [1, 7]: 1 (16.7) n (%)
Nausea [1, 7]: 0 (0.0) n (%)
Palpitations [1, 7]: 0 (0.0) n (%)
Presyncope [1, 7]: 0 (0.0) n (%)
Rhinitis [1, 7]: 1 (16.7) n (%)
Ventricular tachycardia [1, 7]: 0 (0.0) n (%)
Viral infection [1, 7]: 0 (0.0) n (%)
Abdominal pain [1, 8]: 1 (11.1) n (%)
Anxiety [1, 8]: 0 (0.0) n (%)
Any AE [1, 8]: 3 (33.3) n (%)
Any TEAE [1, 8]: 3 (33.3) n (%)
Any TEAE leading to death [1, 8]: 0 (0.0) n (%)
Any TEAE leading to discontinuation [1, 8]: 0 (0.0) n (%)
Any drug-related treatment-emergent SAE [1, 8]: 0 (0.0) n (%)
Any treatment-emergent SAE [1, 8]: 0 (0.0) n (%)
Back pain [1, 8]: 1 (11.1) n (%)
Constipation [1, 8]: 0 (0.0) n (%)
Dizziness [1, 8]: 1 (11.1) n (%)
Dizziness postural [1, 8]: 0 (0.0) n (%)
Dry throat [1, 8]: 0 (0.0) n (%)
Dysphonia [1, 8]: 1 (11.1) n (%)
Eye irritation [1, 8]: 0 (0.0) n (%)
Headache [1, 8]: 1 (11.1) n (%)
Nausea [1, 8]: 0 (0.0) n (%)
Palpitations [1, 8]: 0 (0.0) n (%)
Presyncope [1, 8]: 0 (0.0) n (%)
Rhinitis [1, 8]: 0 (0.0) n (%)
Ventricular tachycardia [1, 8]: 0 (0.0) n (%)
Viral infection [1, 8]: 0 (0.0) n (%)
QT prolongation (electrocardiograms) [1, 9]: no QT prolongation
changes in seated heart rate or BP [1, 9]: no clinically significant changes
subjects with a TEAE considered related to the study drug ([1]; all baxdrostat groups pooled): 6 (14.3%)
severity of TEAEs ([1]; all subjects receiving baxdrostat): mild
change in plasma potassium levels [2, 9]: increases
change in plasma sodium levels [2, 9]: mild dose-dependent decreases
reduction in glomerular filtration rate ([2]; once daily for 10 days): < 15%
